Assay results: PMC5618426, “APETx4, a Novel Sea Anemone Toxin and a Modulator of the Cancer-Relevant Potassium Channel KV10.1” (Marine Drugs, 2017)
“Also recorded” adds a separate entry of the source. Positions of bridges follow the written chain, without caps; N, C: chain ends. No end group written: not given here.

Tested on: hKV11.1 (hERG)
Type: cell-based, human
Procedure: For the expression of the ion channels (rNaV1.4, hNaV1.5, mNaV1.6, hKV1.1, rKV1.3, hKV1.4, hKV1.5, hKV2.1, hKV10.1a and hKV11.1,) in Xenopus oocytes, the plasmids were linearized and subsequently transcribed using the T7 or SP6 mMESSAGE-mMACHINE transcription kit (Ambion®, Carlsbad, CA, USA).
Stage V-VI Xenopus laevis oocytes were isolated by partial ovariectomy. The animals were anesthetized by a 15 min submersion in 0.1% tricaine methane sulfonate (pH 7.0). Isolated oocytes were defolliculated with 2 mg/mL collagenase.
Defolliculated oocytes were injected with 50 nL of cRNA at a concentration of 1 ng/nL using a micro-injector (Drummond Scientific®, Broomall, PA, USA). The oocytes were incubated in a solution containing (in mM): NaCl, 96; KCl, 2; CaCl2, 1.8; MgCl2, 2 and HEPES, 5 (pH 7.4), supplemented with 50 mg/L gentamycin sulfate.
Two-electrode voltage-clamp recordings were performed at room temperature (18–22 °C) using an Geneclamp 500B Voltage and Patch Clamp Amplifier (Axon Instruments, Union City, CA, USA, controlled by a Axon Digidata 1550 Low-Noise Data Acquisition System (Axon Instruments). Whole cell currents from oocytes were recorded 1–4 days after injection. The normal bath solution (ND96) composition was (in mM): NaCl, 96; KCl, 2; CaCl2, 1.8; MgCl2, 2 and HEPES, 5 (pH 7.4). The high potassium solution (HK) composition was in mM): NaCl, 2; KCl, 96; CaCl2, 1.8; MgCl2, 2 and HEPES, 5 (pH 7.4). Voltage and current electrodes were filled with 3 M KCl. Resistances of both electrodes were kept between 0.5 and 1.5 MΩ. The elicited KV1.x end KV2.1 currents were filtered at 500 Hz and sampled at 2 kHz, KV10.1 currents were filtered at 1 kHz and sampled at 2 kHz, hERG currents were filtered at 1 kHz and sampled at 10 kHz and the sodium currents were filtered at 2 kHz and sampled at 20 kHz using a four-pole low-pass Bessel filter. Leak subtraction was performed using a -P/4 protocol.
KV10.1 currents were evoked by 2 s depolarizing pulses to 0 mV from a holding potential of −90 mV. KV11.1 (hERG) peak and tail currents were generated by a 2.5 s prepulse from −90 mV to 40 mV followed by a 2.5 s pulse to −120 mV. […]
The peak and tail current of hERG were measured at different voltages by 1500 ms activating pulses from −60 mV to 55 mV in 5 mV steps from the holding potential of −90 mV, followed by a 750 ms step to −120 mV.
All electrophysiological data are presented as means ± S.E.M of n ≥ 3 independent experiments unless otherwise indicated. All data were acquired using pClamp Clampex 10.4 Molecular Devices, Downingtown, PA, USA) and analyzed using pClamp Clampfit 10.4 (Molecular Devices) and OriginPro 8 (Originlab, Northampton, MA, USA) or GraphPad Prism 6 software (GraphPad Software, Inc., San Diego, CA, USA). […]

## GTTCYCGKTIGIYWFGKYSCPTNRGYTGSCPYFLGICCYPVD (disulfide 4-37, 6-30, 20-38) [APETx4]
10 µM APETx4
  hERG tail current at positive activation steps (≥0 mV): tail current increased
10 µM APETx4, activating step to −20 mV
  highest inhibition of hERG inward tail current: 21 ± 5%
10 µM APETx4, inward tail currents, Boltzmann fit, n = 3, p < 0.05
  shift of hERG activation curve towards more positive potentials: 7.7 ± 0.4 mV
Low micromolar concentrations
  selectivity KV10.1 versus hERG: discriminates between KV10.1 and hERG; also recorded: makes a clear distinction between KV10.1 and hERG
